Data from article PMC9402926, “Synthetic short-chain peptide analogues of H1 relaxin lack affinity for the RXFP1 receptor and relaxin-like bioactivity. Clues to a better understanding of relaxin agonist design” (Frontiers in Pharmacology, 2022).

How the values were obtained:
RXFP1 [1] = experiment: cAMP generation in human monocytic THP-1 cells (RXFP1 downstream pathway), Direct cAMP ELISA; format: cell-based; conditions: serelaxin 17 nm, 15 min, IBMX 100 μM, 3 independent experiments
Procedure: Cell culture for cAMP assay—The RXFP1 downstream cAMP pathway was tested on human monocytic THP-1 cells (ECACC, Salisbury, UK) cultured in suspension in RPMI medium containing 10% foetal bovine serum, 0.05 mm 2-mercaptoethanol, 250 U/ml penicillin G and 250 μg/ml streptomycin, in a 5% CO2 atmosphere at 37°C. Cells (5 × 10^5) were placed in a 24-well plate, added with IBMX (100 μM) to prevent cAMP catabolism and then incubated with the different stimulants. As positive controls, either serelaxin (17 nm) and B7-33 (17, 170, 1700 nm) were used. The H1 peptides 4, 6 and 7, selected among those which had shown a minimal ability to bind RXFP1 in the competition binding experiments, were also used at 17, 170 and 1700 nm final concentration. The cAMP assay was carried out 15 min after RXFP1 stimulation, coinciding with the second sustained cAMP surge ([Nguyen et al., 2003]; [Bani et al., 2007]). The adenylate cyclase activator forskolin (100 μM) was used to determine the maximal cAMP levels. Triplicate cAMP measurements were performed by a Direct cAMP ELISA Kit (Enzo, Milan, Italy). […] The values of cAMP were normalized by the amount of proteins, measured by the micro-BCA Protein Assay Kit (Pierce, IL, United States) and expressed as mg/ml. For statistical purposes, 3 independent experiments were performed.

[2] = i.v. administration; ref Chen et al., 1993; cited from earlier work
Procedure: Since recombinant human H2 relaxin (RLX), later termed serelaxin, was made available as clinical-grade drug ([Stults et al., 1990]), several clinical trials have been performed to explore its therapeutic potential, particularly as cardiovascular and anti-fibrotic agent ([Bani 2020]; [Samuel and Bennett 2021]; [Sassoli et al., 2022]). The last RELAX-AHF-2 phase III trial was performed under the auspices of Novartis Europharm Ltd., owner of the serelaxin patent, to assess its efficacy in patients with heart failure. Regrettably, in spite of encouraging theoretical premises and pre-clinical evide ...

RXFP1 [3] = experiment: ERK1/2 phosphorylation in TGF-β1-induced myofibroblasts from NIH-3T3 fibroblasts expressing RXFP1, Western blot; format: cell-based; conditions: mouse myofibroblasts (TGF-β 48 h), 30 and 90 min, 3 independent experiments
Procedure: Cell culture for ERK1/2 phosphorylation assay - The RXFP1 downstream ERK1/2 phosphorylation pathway was tested on myofibroblasts using a method based on that described by [Hossain et al. (2016)], with minor modifications. Mouse NIH-3T3 fibroblasts (ATCC, Manassas, VA, United States) expressing RXFP1 ([Sassoli et al., 2013]) were cultured in DMEM supplemented with 10% fetal bovine serum (FBS), 2 mm glutamine, 250 U/ml penicillin G and 250 μg/ml streptomycin, in a humidified atmosphere with 5% CO2 at 37°C. They were induced to myofibroblasts in DMEM containing 2% FBS and 2 ng/ml human TGF-β1 (PeproTech, Rocky Hill, NJ, United States) for 12, 24, 48 and 72 h ([Sassoli et al., 2013]). Myofibroblasts were then incubated for 30 or 90 min with either serelaxin (17 nM), or B7-33 (1.7 μM), or the H1 peptides 6 and 7 (1.7 μM), selected among those which had shown a minimal ability to bind RXFP1 in the competition binding experiments. Untreated myofibroblasts were used as controls. To verify fibroblast-to-myofibroblast transition and ERK1/2 phosphorylation, cells were lysed in cold buffer composed of (mM): 10 Tris/HCl pH 7.4, 10 NaCl, 1.5 MgCl2, 2 Na2EDTA, 1% Triton X-100, added with 10x Sigmafast Protease Inhibitor Cocktail tablets and […] Na3VO4 to inhibit endogenous phosphatases. Total protein content was measured spectrophotometrically using micro-BCA Protein Assay Kit (Pierce). Sixty μg of total proteins were electrophoresed by SDS–PAGE and blotted onto PVDF membranes (Millipore, Bedford, MA, United States). […] Specific bands were detected using appropriate peroxidase-labeled secondary antibodies (1:15,000; Vector, Burlingame, CA, United States) and enhanced chemiluminescent substrate (ECL, Sigma-Aldrich). […]

[4] = system: RXFP1-BP (ectodomain of human RXFP1 fused to the single transmembrane and cytoplasmic region of CD8); experiment: Competition binding with europium-labelled H2 relaxin in HEK-293T cells stably expressing RXFP1-BP; conditions: 10 µM competing peptide; 1 nm europium-labeled H2 relaxin; whole cells, 96 well plates; triplicate points, 2 independent experiments
Text: Cell culture for ligand-receptor binding assays—Human embryonic kidney cells (HEK-293T) stably expressing RXFP1-BP ([Halls et al., 2005]) were used for competition binding experiments using europium-labelled H2 relaxin, as described ([Shabanpoor et al., 2012]). This construct contains the ectodomain of human RXFP1 fused to the single transmembrane and cytoplasmic region of CD8. This ectodomain-only construct has a higher affinity for single chain H2 relaxin peptides and is used as a surrogate assay for binding affinity. Assays were performed in whole cell 96 well plates assays with a single concentration of the europium-labeled H2 relaxin (1 nm) in the presence or absence of increasing concentrations of the competing peptides. Non-specific binding was assessed using 1 µM of serelaxin. Each concentration point was assessed in triplicate in 2 independent experiments. The binding data were analyzed using GraphPad Prism 9 and expressed as mean ± SEM. They were fitted using a one site binding model.

[5] = target: RXFP1-BP (ectodomain of human RXFP1 fused to the single transmembrane and cytoplasmic region of CD8); experiment: competition binding with europium-labelled ligand on whole cells; whole cells in 96 well plates; HEK-293T stably expressing RXFP1-BP; single concentration of europium-labeled H2 relaxin (1 nm as printed) with or without increasing concentrations of the competing peptides; non-specific binding with 1 µM serelaxin; triplicates, 2 independent experiments; one site binding model

percent competition of Eu-H2 relaxin binding at 10 µM [5] [%] | Substance | competition of Eu-H2 relaxin binding [4] [%] | ERK1/2 phosphorylation (RXFP1 [3]; peptide 1.7 μM) | further results
– | serelaxin | – | – | elevation of cAMP (RXFP1 [1]): statistically significant elevation of cAMP; half-life [2]: ~2 h; ERK1/2 phosphorylation (RXFP1 [3]; serelaxin 17 nM): statistically significant increase in ERK1/2 phosphorylation
– | [Ser^10,22]Cyclo[Pra^14, LysN3 ^18]H1RLXB(1–23) [compound 4] | ~20 | – | –
20 | [Ser10,22]Cyclo[Pra17, LysN3 21]H1RLXB(1-23) (peptide) | – | – | –
– | [Ser^10,22]Cyclo[LysN3 ^17, Pra^21]H1RLXB(1–23) [compound 7] | ~20 | neither of the H1 peptides 6 and 7 were capable of reproducing the effects of the authentic hormone | –
20 | [Ser10,22]Cyclo[LysN3 17, Pra21]H1RLXB(1-23) (peptide) | – | – | –
– | [Ser^10,22]Cyclo[Pra^17, LysN3 ^21]H1RLXB(1–23) [compound 6] | ~20 | neither of the H1 peptides 6 and 7 were capable of reproducing the effects of the authentic hormone | –
